Each compound was assayed against JMJD2C (Homo sapiens (Human), UniProt Q9H3R0) (assay: In vitro enzyme inhibition assay, JMJD2C demethylase activity (TR-FRET)). Conditions: 0.3 nM JMJD2C, 300 nM H3K9me3-biotin peptide, 2 μM alpha-ketoglutaric acid, 30 minutes at room temperature.
Format: biochemical
Method: This assay determines the ability of a test compound to inhibit JMJD2C demethylase activity. Baculovirus expressed JMJD2C (GenBank Accession #BC143571, AA 2-372) was purchased from BPS Bioscience (Cat#50105).
The ability of test compounds to inhibit the activity of JMJD2C was determined in 384-well plate format under the following reaction conditions: 0.3 nM JMJD2C, 300 nM H3K9me3-biotin labeled peptide (Anaspec cat #64360), 2 μM alpha-ketoglutaric acid in assay buffer of 50 mM HEPES, pH7.3, 0.005% Brij35, 0.5 mM TCEP, 0.2 mg/ml BSA, 50 μM sodium L-ascorbate, and 2 μM ammonium iron(II) sulfate. Reaction product was determined quantitatively by TR-FRET after the addition of detection reagent Phycolink Streptavidin-allophycocyanin (Prozyme) and Europium-anti-di-methylated histone H3 lysine 9 (H3K9me2) antibody (PerkinElmer) in the presence of 5 mM EDTA in LANCE detection buffer (PerkinElmer) at a final concentration of 50 nM and 1 nM, respectively.
The assay reaction was initiated by the following: 2 μL of the mixture of 900 nM H3K9me3-biotin labeled peptide and 6 μM alpha-ketoglutaric acid with 2 μL of 11-point serial diluted inhibitor in 3% DMSO were added to each well of the plate, followed by the addition of 2 μl of 0.9 nM JMJD2C to initiate the reaction. The reaction mixture was incubated at room temperature for 30 minutes, and terminated by the addition of 6 μL of 5 mM EDTA in LANCE detection buffer containing 100 nM Phycolink Streptavidin-allophycocyanin and 2 nM Europium-anti-H3K9me2 antibody. Plates were read by EnVisionMultilabel Reader in TR-FRET mode (excitation at 320 nm, emission at 615 nm and 665 nm) after 1 hour incubation at room temperature. A ratio was calculated (665/615) for each well and fitted to determine inhibition constant (IC50).

Chain of JMJD2C (Q9H3R0 2-372): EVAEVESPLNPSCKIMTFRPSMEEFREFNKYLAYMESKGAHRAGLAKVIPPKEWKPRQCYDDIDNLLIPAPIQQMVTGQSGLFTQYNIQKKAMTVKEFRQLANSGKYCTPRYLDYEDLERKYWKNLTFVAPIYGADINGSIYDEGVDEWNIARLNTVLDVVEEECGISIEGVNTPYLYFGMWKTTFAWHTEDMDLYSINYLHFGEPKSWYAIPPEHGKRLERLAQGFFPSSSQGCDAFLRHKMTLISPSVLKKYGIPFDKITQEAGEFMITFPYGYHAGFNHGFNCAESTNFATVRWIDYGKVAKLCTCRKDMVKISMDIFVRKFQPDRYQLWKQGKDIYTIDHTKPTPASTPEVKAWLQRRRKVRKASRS

SMILES | IC50 [nM]
Cn1nc2ccc(Cl)cc2c1-c1cc2nccc(C(=O)O)c2[nH]1 [Example 7, 2-(5-Chloro-2-methyl-2H-indazol-3-yl)-1H-pyrrolo[3,2-b]pyridine-7-carboxylic acid] | 1000 to 10000
O=C(O)c1ccnc2cc(-c3nn(CC(F)(F)F)c4cc(Cl)ccc34)[nH]c12 [Example 19, 2-[6-chloro-1-(2,2,2-trifluoroethyl)-1H-indazol-3-yl]-1H-pyrrolo[3,2-b]pyridine-7-carboxylic acid] | 1000 to 10000
O=C(O)c1ccnc2cc(-c3nn(CC4CC4)c4cc(Cl)ccc34)[nH]c12 [Example 18, 2-[6-chloro-1-(cyclopropylmethyl)-1H-indazol-3-yl]-1H-pyrrolo[3,2-b]pyridine-7-carboxylic acid] | 1000 to 10000
O=C(O)c1ccnc2cc(-c3nn(CCN4CCCC4)c4ccc(Cl)cc34)[nH]c12 [Example 20, 2-{5-chloro-1-[2-(pyrrolidin-1-yl)ethyl]-1H-indazol-3-yl}-1H-pyrrolo[3,2-b]pyridine-7-carboxylic acid] | 100 to 1000
O=C(O)c1ccnc2cc(-c3c4cc(Cl)ccc4nn3CCN3CCCC3)[nH]c12 [Example 10, 2-{5-Chloro-2-[2-(pyrrolidin-1-yl)ethyl]-2H-indazol-3-yl}-1H-pyrrolo[3,2-b]pyridine-7-carboxylic acid] | 100 to 1000
Cn1nc(-c2cc3nccc(C(=O)O)c3[nH]2)c2cc(F)ccc21 [Example 14, 2-(5-fluoro-1-methyl-1H-indazol-3-yl)-1H-pyrrolo[3,2-b]pyridine-7-carboxylic acid] | 100 to 1000
Cn1nc2ccc(C(F)(F)F)cc2c1-c1cc2nccc(C(=O)O)c2[nH]1 [Example 4, 2-[2-Methyl-5-(trifluoromethyl)-2H-indazol-3-yl]-1H-pyrrolo[3,2-b]pyridine-7-carboxylic acid] | 1000 to 10000
Cn1nc2cc(Cl)ccc2c1-c1cc2nccc(C(=O)O)c2[nH]1 [Example 3, 2-(6-Chloro-2-methyl-2H-indazol-3-yl)-1H-pyrrolo[3,2-b]pyridine-7-carboxylic acid] | 100 to 1000
CN(c1ccccc1)c1cccc2c(-c3cc4nccc(C(=O)O)c4[nH]3)n(C)nc12 [Example 12, 2-{2-methyl-7-[methyl(phenyl)amino]-2H-indazol-3-yl}-1H-pyrrolo[3,2-b]pyridine-7-carboxylic acid] | 1000 to 10000
Cn1nc(-c2cc3nccc(C(=O)O)c3[nH]2)c2ccc(F)cc21 [Example 16, 2-(6-fluoro-1-methyl-1H-indazol-3-yl)-1H-pyrrolo[3,2-b]pyridine-7-carboxylic acid] | 100 to 1000
COc1ccc2c(-c3cc4nccc(C(=O)O)c4[nH]3)n(C)nc2c1 [Example 1, 2-(6-Methoxy-2-methyl-2H-indazol-3-yl)-1H-pyrrolo[3,2-b]pyridine-7-carboxylic acid] | 100 to 1000
CN(c1ccccc1)c1ccc2c(-c3cc4nccc(C(=O)O)c4[nH]3)n(C)nc2c1 [Example 11, 2-{2-methyl-6-[methyl(phenyl)amino]-2H-indazol-3-yl}-1H-pyrrolo[3,2-b]pyridine-7-carboxylic acid] | 100 to 1000
O=C(O)c1ccnc2cc(-c3nn(CCN4CCOCC4)c4ccc(F)cc34)[nH]c12 [Example 21, 2-{5-fluoro-1-[2-(morpholin-4-yl)ethyl]-1H-indazol-3-yl}-1H-pyrrolo[3,2-b]pyridine-7-carboxylic acid] | 1000 to 10000
COc1ccc2nn(C)c(-c3cc4nccc(C(=O)O)c4[nH]3)c2c1 [Example 2, 2-(5-Methoxy-2-methyl-2H-indazol-3-yl)-1H-pyrrolo[3,2-b]pyridine-7-carboxylic acid] | 100 to 1000
Cn1nc2ccc(C3CC3)cc2c1-c1cc2nccc(C(=O)O)c2[nH]1 [Example 6, 2-(5-Cyclopropyl-2-methyl-2H-indazol-3-yl)-1H-pyrrolo[3,2-b]pyridine-7-carboxylic acid] | 100 to 1000
CCn1nc2cc(Cl)ccc2c1-c1cc2nccc(C(=O)O)c2[nH]1 [Example 8, 2-(6-Chloro-2-ethyl-2H-indazol-3-yl)-1H-pyrrolo[3,2-b]pyridine-7-carboxylic acid] | 1000 to 10000
Cn1nc2ccc(OC(F)(F)F)cc2c1-c1cc2nccc(C(=O)O)c2[nH]1 [Example 5, 2-[2-Methyl-5-(trifluoromethoxy)-2H-indazol-3-yl]-1H-pyrrolo[3,2-b]pyridine-7-carboxylic acid] | 1000 to 10000
O=C(O)c1ccnc2cc(-c3c4ccc(Cl)cc4nn3CC3CC3)[nH]c12 [Example 9, 2-[6-Chloro-2-(cyclopropylmethyl)-2H-indazol-3-yl]-1H-pyrrolo[3,2-b]pyridine-7-carboxylic acid] | 1000 to 10000
Cn1nc(-c2cc3nccc(C(=O)O)c3[nH]2)c2ccccc21 [Example 13, 2-(1-methyl-1H-indazol-3-yl)-1H-pyrrolo[3,2-b]pyridine-7-carboxylic acid] | 100 to 1000
CCn1nc(-c2cc3nccc(C(=O)O)c3[nH]2)c2ccc(Cl)cc21 [Example 17, 2-(6-chloro-1-ethyl-1H-indazol-3-yl)-1H-pyrrolo[3,2-b]pyridine-7-carboxylic acid] | 1000 to 10000
Cn1nc(-c2cc3nccc(C(=O)O)c3[nH]2)c2ccc(Cl)cc21 [Example 15, 2-(6-chloro-1-methyl-1H-indazol-3-yl)-1H-pyrrolo[3,2-b]pyridine-7-carboxylic acid] | 100 to 1000
